Measured values as given in publication PMC7064771, “Repurposed Drugs That Block the Gonococcus-Complement Receptor 3 Interaction Can Prevent and Cure Gonococcal Infection of Primary Human Cervical Epithelial Cells” (mBio, 2020).
“Also recorded” adds a separate entry of the source.

What was measured:
[1] = test system: N. gonorrhoeae adherence to Pex cells; assay: Fluorometric adherence assay, Pex cells; assay type: cell-based, human; settings: 1-h infection with GFP-expressing N. gonorrhoeae, competitor added simultaneously
Protocol: (§1) Fluorometric adherence assays were performed essentially as described previously ([36]). In brief, N. gonorrhoeae MS11 gfp was used to challenge (1 h) Pex or CHO cells simultaneously with peptide or drug competitor. Infected (devoid of peptide or drug) and uninfected (with peptide, drug, or dimethyl sulfoxide [DMSO] vehicle) control cell assays were treated in parallel with competitive peptide/drug inhibition assays. Fluorescence (485 nm excitation, 528 nm emission) intensity, corresponding to bacterial adherence, was recorded using a Synergy HT multimode microplate reader (BioTek Instruments, Winooski, VT, USA). Blank wells, devoid of Pex or CHO cells, were inoculated with bacteria and served as a control for nonspecific binding. Each assay was performed in triplicates on 3 separate occasions. Peptides used are described in Table S1. A nonparametric analysis of variance (ANOVA) was used to determine the statistical significance of the calculated mean of bacterial adherence.

[2] = test system: N. gonorrhoeae adherence to CHO-CR3 cells; assay: Fluorometric adherence assay, CHO-CR3 cells; assay type: cell-based, Chinese hamster; settings: 1-h infection with GFP-expressing N. gonorrhoeae, competitor added simultaneously
Protocol: as §1

[3] = test system: N. gonorrhoeae adherence to CHO-neo cells; assay: Fluorometric adherence assay, CHO-neo cells; assay type: cell-based, Chinese hamster; settings: 1-h infection; cells do not express CR3
Protocol: as §1

human rI-domain [4] = biological target: T1, human rI-domain (Homo sapiens, UniProt P11215); assay: Repurposed drug SPR against human CR3 I-domain (single-cycle kinetics); settings: 10 nM to 0.625 nM, read-out: KD, binding to human rI-domain
T1 construct: Recombinant human and mouse I-domain proteins were made and purified as previously described; made in house
T1 sequence (P11215 150-328 limits assumed): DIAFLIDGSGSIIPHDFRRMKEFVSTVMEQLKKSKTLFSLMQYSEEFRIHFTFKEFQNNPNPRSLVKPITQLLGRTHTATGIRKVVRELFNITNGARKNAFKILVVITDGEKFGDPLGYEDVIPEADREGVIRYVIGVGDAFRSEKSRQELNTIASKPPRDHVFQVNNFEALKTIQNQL
Protocol: Human rI-domain was immobilized onto a CM5 sensor chip with a blank control flow cell as described above. A combination of two FDA-approved drug libraries, Microsource-CPOZ (2,400 drugs) and ML Drug (741 drugs), was purchased from Compounds Australia. […] A single-concentration injection screen (yes/no) binding assay was performed. Binding was determined based on the response unit shift (equal to the molecular weight-corrected response units of the positive-control glycan) of the stability of the binding phase of the dissociation cycle. […] For carbamazepine and methyldopa, saturation occurred between 1.6 nM and 8 nM, and so a new concentration range (10 nM to 0.625 nM) was tested. […] All SPR sensorgrams and result plots described above were analyzed with Biacore S200 evaluation software (GE Healthcare Life Sciences). A literature review was used to evaluate the remaining drugs for known long-term safety in humans and known therapeutic concentrations.

human rI-domain [5] = biological target: T1, human rI-domain; assay: Direct competition SPR, drug versus N. gonorrhoeae MS11 pilin; assay type: binding; settings: drug and pilin at 1 μM
[6] = test system: N. gonorrhoeae infection of Pex cells
Protocol: Infection studies were performed as previously described with modification using a multiplicity of infection of 100 ([44]). To establish infection before treatment, Pex cells were challenged with N. gonorrhoeae for 90 min. The infection medium was then removed, the cells were rinsed thrice, and fresh medium containing 0.1% DMSO (vehicle control), carbamazepine (100 pM to 100 μM), methyldopa (100 pM to 100 μM), or ceftriaxone (0.1 μg/ml or 0.5 μg/ml, positive control) was added. Infections then proceeded for an additional 24 h or 48 h, after which, the infection medium was removed. Pex cell monolayers were subsequently lysed, serial dilutions of the Pex cell lysates were plated, and viable gonococci were enumerated by counting CFU after 48 h of incubation (37°C, 5% CO2). For sequential infection assays, viable bacterial colonies that survived a treatment assay were harvested from the enumeration (CFU) plates and used to inoculate new Pex cell monolayers. For these sequential assays, each infection (the original infection or the infection with bacteria that had survived the original infection) proceeded for 24 h. Pex cells were then processed, and bacteria were enumerated, as described above. For all assays, the percentage of N. gonorrhoeae that survived carbamazepine, methyldopa, or ceftriaxone treatment was determined as a function of bacteria that survived DMSO treatment (set to 100%). All assays were performed in triplicates on 3 separate occasions. A nonparametric ANOVA was used to determine the statistical significance of bacterial survival.

N. gonorrhoeae strains = assay: Well diffusion assay; assay type: cell-based, Neisseria gonorrhoeae; settings: 100 pM to 100 μM in wells, overnight
Protocol: Well diffusion assays were performed essentially as described previously ([56]). Briefly, N. gonorrhoeae strains were spread uniformly across the surfaces of GC agar plates at a culture density of 10^7 bacteria per ml. Wells were then punctured within the agar surface to which carbamazepine or methyldopa (100 pM to 100 μM), 0.2 μg/ml ceftriaxone, 10 μg/ml ciprofloxacin, or 1% DMSO (vehicle control) was added. Following an overnight incubation (37°C, 5% CO2), inhibition of N. gonorrhoeae growth was measured as the diameter (in millimeters) of the area of clearing surrounding (and inclusive of) each well on each agar plate, i.e., the zone of inhibition (ZOI). For agar plates in which a ZOI was not visible, data were recorded as the diameter of the well (6 mm). Assays were performed in triplicates on 3 separate occasions. Statistical significance of data obtained was determined using a Student's t test.

[7] = orally administered, prescribed use; cited from earlier work

**Q.** Which results are given for `NC(=O)N1c2ccccc2C=Cc2ccccc21` [carbamazepine]?
**A.** Gonococcal adherence to Pex cells (fluorescence) [1]: dose-dependent decrease; also recorded: decreased in a dose-dependent manner; Gonococcal adherence to CHO-CR3 cells (fluorescence) [2]: dose-dependent decrease; also recorded: decreased in a dose-dependent manner; Gonococcal adherence to CHO-neo cells (fluorescence) [3]: no effect; also recorded: but not to CHO-neo cells; Kd (human rI-domain [4]): 2.12 nM; Blocking of the interaction of N. gonorrhoeae MS11 pilin with rCR3 or rI-domain (human rI-domain [5]): completely blocked; N. gonorrhoeae strain MS11 survival ([6]; 24 h posttreatment, 100 pM to 100 μM): dose-dependent reductions; Numbers of viable gonococci, low-passage-number gonococcal isolates ([6]; 24 h posttreatment, established Pex cell infections): significant reductions; Killing of survivor population in second sequential infection ([6]; bacteria harvested from a 24-h treated infection, re-used and treated again for 24 h): 100%; Efficacy in treating multidrug-resistant gonococci compared with ceftriaxone ([6]; panel of multidrug-resistant N. gonorrhoeae isolates): more effective than ceftriaxone; Effect on gonococcal viability in the absence of Pex cells (zone of inhibition) (N. gonorrhoeae strains): neither carbamazepine nor methyldopa had an effect; also recorded: no effect; Concentration in serum [7]: ~17 µM
